Columns and labels:
[1] = tested on: anterior and posterior HOXA genes; test: HOXA gene expression in hPSCs with EC23 and/or SB CHIR (FIG. 29); type: cell-based, human; details: d2-4
Protocol: hPSCs were differentiated in medium supplemented with CHIR99021, BMP4, VEGF, SCF, ACTIVIN A and FGF2 (denoted CH BVSAF in FIG. 29) from d0-4, or with an additional pulse of SB431542 and CHIR99021 (denoted SB CHIR in FIG. 29) from d2-4. Cultures also were treated with the retinoic acid analogue EC23 at 0, 10^−5 M or 10^−7 M concentrations from d2-4 (denoted 0, 10-5 and 10-7, respectively in FIG. 29). […] Gene expression was normalized to GAPDH and is shown in arbitrary units in FIG. 29.

HOXA and CDX genes = test: RT-PCR of HOXA and CDX genes in differentiating hESC cultures supplemented with SB, CHIR or SB/CHIR; type: cell-based, human; details: added from differentiation days 2 to 4; RT-PCR at d4 and d7
Protocol: Total RNA was prepared from ES cells and dissociated EBs using the Qiagen RNeasy kit or the Bioline Isolate II RNA Mini Kit according to the manufacturers' instructions. cDNA was reverse transcribed using random hexamer priming and Superscript III (Invitrogen) or Tetro (Bioline) cDNA synthesis kits as specified by the manufacturer. Human RUNX1 isoform specific primers (Table 1) were based on those designed for mouse Runx1 previously. For other genes, TaqMan gene expression probes and reagents (Applied Biosystems) were used for quantitative real-time PCR analysis and GAPDH was used as the reference gene to normalize data.
The HES3 and H9 human embryonic stem cell lines used in these studies were obtained from ES Cell International (now owned by Biotime Inc) and WiCell. The human ESC work was approved by the Monash Medical Centre and Royal Children's Hospital Human Research Ethics Committees. Culture and enzymatic passaging of hESC lines was performed as reported in Ng et al. Nature Protocols 3, 768-776 (2008). […] Brightfield and fluorescence images comparing RUNX1C^GFP/w with RUNX1C^GFP/GFP cell cultures shown in FIG. 1b were representative of 3 independent experiments. […]

Row | Structure (SMILES) | effectiveness on HOXA gene induction ([1]; 10^−5 M) | effectiveness on HOXA gene induction ([1]; 10^−7 M) | HOXA gene expression compared with control cultures (HOXA and CDX genes)
1 | CC1(C)CCC(C)(C)c2cc(C#Cc3ccc(C(=O)O)cc3)ccc21 [EC23] | effective | effective | –
2 | Cc1c[nH]c(-c2cnc(NCCNc3ccc(C#N)cn3)nc2-c2ccc(Cl)cc2Cl)n1 [CHIR, CHIR99021] | – | – | increased HOXA9 and HOXA10 expression
3 | NC(=O)c1ccc(-c2nc(-c3ccc4c(c3)OCO4)c(-c3ccccn3)[nH]2)cc1 [SB, SB431542] | – | – | increased HOXA3, HOXA7 and HOXA9 expression

Source: patent publication US20190144828A1, “HAEMATOPOIETIC STEM/PROGENITOR CELLS” (priority 2016, published 2019)
